Holding throughout (experiment): NCI tumour cell line growth inhibition, 48 h
For assay [1], the system named is SF-295.
The subject of assay [2] is HT-29.
For assay [3], the system named is NCI-H23.
Assay [4] relates to SNB-75.
Assay [5] has as its system RXF 393.
The test system of assay [6] is LOX IMVI.
In assay [7] the test system is DU-145.
In assay [8] the test system is NCI/ADR-RES.
Assay [9] concerns SK-MEL-28.
Assay [10] has as its system A549.
The subject of assay [11] is NCI-H460.
For assay [12], the system named is SK-OV-3.
Assay [13] relates to OVCAR-3.
For assay [14], the system named is OVCAR-5.
Assay [15] has as its system PC-3.
The test system of assay [16] is Malme-3M.
For assay [17], the system named is HL-60.
In assay [18] the test system is CCRF-CEM.
The subject of assay [19] is K562.
In assay [20] the test system is KM12.

Molecules are shown by their SMILES.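 Dose response: 5 concentrations. Exposure: 48 h. Format: 96-well plates. Endpoint: linear interpolation; highest concentration if not reached. GI50 is the concentration that inhibits growth by half.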 Calls of active or inactive are those of the source. Rule as the data show it: active = GI50 up to about 1.1 µM and inactive = higher. A value given as a limit tells only on which side of the number the result lay.

As for `Nc1ncnc2c1ccn2C1OC2COP(=O)(O)OC2C1O` (stereo not given), the GI50 was 641 nM (active) in [1]; 137 nM (active) in assay [2]; 885 nM (active) in assay [3]; 231 nM (active) in assay [4]; 212 nM (active) in assay [5]; 73.5 nM (active) in assay [6]. In addition, the GI50 in [7] was 723 nM (active); in assay [8], 565 nM (active); in assay [9] it was 515 nM (active); in assay [10], 365 nM (active); in [11], 168 nM (active); in [12], 197 nM (active). The GI50 in [13] is 275 nM (active); in assay [14], 849 nM (active); in [15] it was 163 nM (active); in assay [16], 270 nM (active); in assay [17], < 47.6 nM (active); in assay [18], 773 nM (active). For the same compound, the GI50 in [19] is 261 nM (active); in [20], 363 nM (active).
Take `C[C@]12CC[C@H]3[C@@H](CC[C@]4(O)C[C@@H](O)CC[C@]34C=O)[C@@]1(O)CC[C@@H]2C1=CC(=O)OC1` [STROPHANTHIDIN]: the GI50 in assay [1] was 457 nM (active); in assay [2] it was 406 nM (active); in assay [3] it was 265 nM (active); in [4] it was 1140 nM (inactive); in assay [5] it was 274 nM (active); in assay [6], 453 nM (active). Also, the GI50 in assay [7] is 284 nM (active); in assay [8] it was 403 nM (active); in [9], 1730 nM (inactive); in assay [10] it was 159 nM (active); in assay [11], 195 nM (active); in assay [12], 568 nM (active). The GI50 in [13] is 421 nM (active); in assay [14], 1420 nM (inactive); in assay [15], 453 nM (active); in assay [16] it was 435 nM (active); in [17], 347 nM (active); in assay [18], 488 nM (active). Moreover, the results for the GI50 in assay [19] and in [20] were 605 nM (active) and 1940 nM (inactive), respectively.
For `CCOC(=O)c1c2c(n(-c3ccc(OC)cc3)c1C)C(=O)C(=O)c1ccccc1-2`, the GI50 is 1610 nM (inactive) in assay [1]; 2340 nM (inactive) in assay [2]; 873 nM (active) in assay [3]; 2160 nM (inactive) in assay [4]; 1840 nM (inactive) in assay [5]; 789 nM (active) in assay [6]. The GI50 is 1520 nM (inactive) in assay [7]; 869 nM (active) in assay [8]; 2120 nM (inactive) in [9]; 1510 nM (inactive) in assay [10]; 1430 nM (inactive) in assay [11]; 2380 nM (inactive) in assay [12]. Also, the GI50 in assay [13] was 419 nM (active); in assay [14], 1880 nM (inactive); in [15], 2180 nM (inactive); in [16], 241 nM (active); in [17] it was 26.1 nM (active); in [18] it was 1270 nM (inactive). Moreover, the GI50 in [19] was 488 nM (active); in assay [20], 1820 nM (inactive).
As to `c1ccc(CSSSCc2ccccc2)cc1` [DIBENZYL TRISULFIDE], the GI50 in [1] was 6580 nM (inactive); in assay [2], 1000 nM (active); in assay [3] it was 2400 nM (inactive); in assay [4] it was 7180 nM (inactive); in assay [5], 1720 nM (inactive); in assay [6], 621 nM (active). The GI50 in assay [7] was 1120 nM (active); in assay [8], 1860 nM (inactive); in assay [9] it was 20700 nM (inactive); in [10] it was 5090 nM (inactive); in assay [11] it was 1700 nM (inactive); in assay [12] it was 3610 nM (inactive). Also, the GI50 in assay [13] is 423 nM (active); in assay [14], 3620 nM (inactive); in assay [15], 1320 nM (inactive); in assay [16], 7360 nM (inactive); in assay [17], 378 nM (active); in [18] it was 26.9 nM (active). Also, the GI50 in assay [19] was 127 nM (active); in assay [20], 2670 nM (inactive).

The record behind these values is ChEMBL document CHEMBL1201862, “PubChem BioAssay data set” (2004).
